How the values were obtained:
[1] = test system: Vero cells; test: CellTiter-Glo cell viability assay in Vero cells; assay type: cell-based, African green monkey; conditions: 72 h exposure
[2] = CellTiter-Glo cell viability assay in Vero cells; assay type: cell-based, African green monkey; conditions: African green monkey, 72 h exposure
[3] = test system: HCMV; set-up: method as in earlier work; conditions: cited from earlier work
[4] = test system: HSV-1; test: Cytopathic effect; assay type: cell-based, Herpes simplex virus type 1 (strain H129); conditions: for IC50: 48 h; for Selective Index: SI = CC50/IC50, CPE reduction assay, Vero cells
[5] = test system: HSV-1; test: Plaque reduction assay (viral titer in supernatant), HSV-1-infected Vero cells; assay type: cell-based, Herpes simplex virus type 1 (strain H129); conditions: for Viral titer: HSV-1 MOI 0.01, 48 h, supernatant
[6] = test system: HSV-1; test: Plaque reduction assay, HSV-1-infected HepG2 cells; assay type: cell-based, Herpes simplex virus type 1 (strain H129); conditions: Human alphaherpesvirus 1, HSV-1 MOI 0.01, HepG2 cells, 48 h
[7] = test system: HSV-1; test: Plaque reduction assay, HSV-1-infected Hela cells; assay type: cell-based, Herpes simplex virus type 1 (strain H129); conditions: Human alphaherpesvirus 1, HSV-1 MOI 0.01, Hela cells, 48 h
[8] = CellTiter-Glo cell viability assay in HepG2 cells; assay type: cell-based; conditions: human, 72 h exposure
[9] = CellTiter-Glo cell viability assay in Hela cells; assay type: cell-based; conditions: human, 72 h exposure
[10] = test system: HSV-2; test: Anti-HSV-2 activity in Vero cells by plaque assay; assay type: cell-based, Herpes simplex virus type 2 (strain G); conditions: HSV-2, Vero cells
[11] = test system: HSV-1; test: Time-of-addition assay, HSV-1 in Vero cells, plaque assay readout; assay type: cell-based, Herpes simplex virus type 1 (strain H129)
[12] = test system: HSV-1; test: Virus attachment assay (IFA, anti-gD); assay type: cell-based, Herpes simplex virus type 1 (strain H129); conditions: BMS at 0.5, 5, and 50 µM, 4 °C, MOI 10
[13] = test system: HSV-1; test: Virus entry assay (IFA, anti-ICP5); assay type: cell-based, Herpes simplex virus type 1 (strain H129)
[14] = test system: HSV-1 IE, E, and L genes; test: HSV-1 IE, E and L gene expression (qRT-PCR and Western blot) in Vero cells; assay type: cell-based, Herpes simplex virus type 1 (strain H129)
[15] = test system: HSV-1 DNA; test: Intracellular and virion-associated HSV-1 DNA levels by real-time PCR; assay type: cell-based, Herpes simplex virus type 1 (strain H129); conditions: Vero cells, MOI 0.01, 24 h, qPCR
[16] = test system: HSV-1; test: BMS treatment during different time periods of the HSV-1 life cycle; assay type: cell-based, Herpes simplex virus type 1 (strain H129)
[17] = test system: cyclin B-dependent CDK1; conditions: read-out: in vitro IC50; cited from earlier work
[18] = test system: cycle E-dependent CDK2; conditions: read-out: in vitro IC50; cited from earlier work
[19] = Human alphaherpesvirus 1, HSV-1 MOI 0.01, Vero cells, CPE reduction, ND = Not detectable, read-out: IC50

With `C=CS(=O)(=O)c1ccc(Nc2nc(OCC3CCCCC3)c3[nH]cnc3n2)cc1` [NU6300] as the compound, how does the CC50 [1] read?
Its CC50 is 13.8 µM.

Which CC50 [1] does the source give for `COc1ccccc1-c1cc(Nc2cccc(CS(N)(=O)=O)c2)ncn1` [LDC000067] here?
Its CC50 is 14.4 µM.

For `COC(=O)[C@]1(Cc2ccc(O)c(CC=C(C)C)c2)OC(=O)C(O)=C1c1ccc(O)cc1` [Butyrolactone I], which CC50 at 72 h [2] is on record?
Its CC50 at 72 h is 151 µM.

With `CN1CC[C@H](c2c(O)cc(O)c3c(=O)cc(-c4ccccc4Cl)oc23)[C@H](O)C1` [Flavopiridol] as the compound, how does the CC50 at 72 h [2] read?
The CC50 at 72 h was 0.16 µM.

With `COc1ccc(CNc2nc(N(CCO)CCO)nc3c2ncn3C(C)C)cc1` [CVT-313] as the compound, how does the CC50 [1] read?
The CC50 was 6.38 µM.

For `CCn1cnc2c(Nc3cccc(Cl)c3)nc(N[C@@H]3CCCC[C@@H]3N)nc21` [CGP74514A], which “reduction of HCMV replication compared with untreated controls” value [3] is on record?
Its value is ~ 300 fold.

For `CCN1CCN(Cc2ccc(Nc3ncc(F)c(-c4cc(F)c5nc(C)n(C(C)C)c5c4)n3)nc2)CC1` [Abemaciclib], which CC50 at 72 h [2] is on record?
Its CC50 at 72 h is 29.1 µM.

Which CC50 at 72 h [2] does the source give for `CC[C@H](CO)Nc1nc(NCc2ccccc2)c2ncn(C(C)C)c2n1` [Seliciclib] here?
The CC50 at 72 h was 18.5 µM.

Which CC50 at 72 h [2] does the source give for `CCc1cnn2c(NCc3ccc[n+]([O-])c3)cc(N3CCCC[C@H]3CCO)nc12` [Dinaciclib] here?
The CC50 at 72 h was 1.13 µM.

Which results are given for `Cc1n[nH]c2ncc(C(=O)N3CCC[C@H]3c3ccc(Cl)cc3)cc12` [MSC2530818]?
IC50 [4, 19]: 25 µM; Selective Index [4]: 5.54; CC50 at 72 h [2]: 138 µM

For `CN(C)C/C=C/C(=O)Nc1cccc(C(=O)Nc2cccc(Nc3ncc(Cl)c(-c4c[nH]c5ccccc45)n3)c2)c1` [THZ2], which CC50 [1] is on record?
Its CC50 is 0.42 µM.

With `CC(C)[C@H](CO)Nc1nc(Nc2ccc(C(=O)O)c(Cl)c2)c2ncn(C(C)C)c2n1` [Purvalanol B] as the compound, how does the CC50 at 72 h [2] read?
Its CC50 at 72 h is 73.5 µM.

With `CCCCOc1c(C(=O)c2c(F)cc(C)cc2F)c[nH]c2nncc1-2` [BMS-265246] as the compound, how does the IC50 ([4]; Human alphaherpesvirus 1, Vero) read?
The IC50 was 0.08 µM.

And the “Selective Index” value [4]?
The value was greater than 6250.

And the CC50 at 72 h [2]?
The CC50 at 72 h was greater than 500 µM.

And the Viral titer ([5]; BMS 0.02 μM)?
Its Viral titer is 5.90 log10PFU/mL.

And the Viral titer ([5]; BMS 0.07 μM)?
The Viral titer was 5.87 log10PFU/mL.

What about the Viral titer ([5]; BMS 0.21 μM) of the same compound?
Its Viral titer is 5.85 log10PFU/mL.

And the Viral titer ([5]; BMS 0.62 μM)?
Its Viral titer is 5.76 log10PFU/mL.

And the Viral titer ([5]; BMS 1.85 μM)?
The Viral titer was 5.01 log10PFU/mL.

What about the Viral titer ([5]; BMS 5.56 μM) of the same compound?
The Viral titer was 3.40 log10PFU/mL.

And the Viral titer ([5]; BMS 16.67 μM)?
The Viral titer was 2.60 log10PFU/mL.

And the Viral titer ([5]; BMS 50 μM)?
Its Viral titer is 2.24 log10PFU/mL.

What about the IC50 ([5]; Human alphaherpesvirus 1, HSV-1 MOI 0.01, Vero cells, 48 h, plaque assay) of the same compound?
The IC50 was 0.95 µM.

And the IC50 [6]?
The IC50 was 1.03 µM.

And the IC50 [7]?
Its IC50 is 0.18 µM.

What about the CC50 at 72 h [8] of the same compound?
The CC50 at 72 h was greater than 500 µM.

And the CC50 at 72 h [9]?
The CC50 at 72 h was 189 µM.

And the Selective Index ([10]; CC50/IC50)?
Its Selective Index is greater than 472.

And the IC50 ([10]; Human alphaherpesvirus 2, plaque assay)?
The IC50 was 1.06 µM.

What about the “production of progeny virions” value ([11]; pretreatment of the cells) of the same compound?
The value was “significantly reduced”.

And the viral titer reduction ([11]; treatment started at 4 or 10 hpi until harvesting)?
The viral titer reduction was “less than one logarithm”.

What about the “binding of HSV-1 to Vero cells” value [12] of the same compound?
The value was “did not affect the binding”.

And the “entry of HSV-1 to Vero cells” value ([13]; BMS at 0.5, 5, and 50 µM, 37 °C 30 min, MOI 10)?
Its value is “did not affect the entry”.

And the “expression of ICP5 (IFA over 1-4 hpi)” value ([13]; Vero cells, MOI 10, 1, 2, 3, and 4 h at 37 °C)?
Its value is “the expression of ICP5 was prevented”.

And the “transcripts of the IE gene ICP27, the E gene ICP8, and the L gene gD” value ([14]; MOI 0.01, qRT-PCR at 4, 8, and 20 hpi)?
The value was “concentration-dependently suppressed”.

What about the “protein levels of ICP4, ICP8, ICP5, and gB” value ([14]; Western blot at 24 hpi) of the same compound?
Its value is “reduced by BMS concentration-dependently”.

What about the “intracellular HSV-1 DNA levels” value ([15]; Hirt method) of the same compound?
The value was “decreases concentration-dependently”.

And the “virion-associated HSV-1 viral DNA levels” value ([15]; supernatant)?
Its value is “reduced concentration-dependently”.

And the “virus production (plaque assay)” value ([16]; 50 μM BMS at 5–10 and 10–15 hpi, MOI 0.1, 30 h of infection)?
The value was “significantly suppress virus production”.

What about the “transcription of ICP27, ICP8, and gD” value ([16]; 50 μM BMS during 0–5, 5–10, 10–15, or 15–20 hpi, MOI 1, Vero cells) of the same compound?
Its value is “dramatically suppresses”.

What about the IC50 [17] of the same compound?
The IC50 was 0.006 µM.

And the IC50 [18]?
Its IC50 is 0.009 µM.

What does the source list for `Nc1nc2c(ncn2COCCO)c(=O)[nH]1` [Acyclovir, acyclovir]?
IC50 [4, 19]: 0.42 µM; Selective Index [4]: >238.10; CC50 at 72 h [2]: > 100 µM

Which CC50 [1] does the source give for `CC(=O)Nc1cc(Oc2ccc3c(C(=O)Nc4ccc(CN5CCN(C)CC5)c(C(F)(F)F)c4)cccc3c2)ncn1` [BGG463] here?
Its CC50 is 18.5 µM.

Which CC50 [1] does the source give for `Nc1cc(Nc2ccc(S(N)(=O)=O)cc2)ncn1` [PNU112455A] here?
The CC50 was 156 µM.

Which CC50 [1] does the source give for `O=C1NC(=NCc2cccs2)S/C1=C\c1ccc2ncccc2c1` [Ro-3306] here?
Its CC50 is 14.1 µM.

From PMC10459710 (Viruses, 2023)
